Results taken from patent publication US9540418B2, “Polypeptide specifically binding to rare earth nanoparticles and use thereof” (University of Science and Technology of China, priority 2012, dated 2017).

Tests used:
[1] = Competitive inhibition of REOB-1 phage binding to Nd2O3 by polypeptides (IC50); details: 100 μg Nd2O3, REOB-1 phages at a titer of 108, 2 hr incubation; read-out: IC50 (μM)* of polypeptides competitively inhibiting the binding of REOB-1 phages to Nd2O3 nanoparticles
Protocol: 100 μg Nd2O3 was mixed with the polypeptides, RE-1, AP-1, RE-2, RE-3, RE-4, RE-5, RE-6, RE-7, RE-8, RE-9, RE-10, etc., respectively. To the mixture, REOB-1 phages at a titer of 108 were added. After 2 hr of incubation, the number of REOB-1 phages binding to Nd2O3 was measured. IC50 value indicated the relative activity of various polypeptides competitively inhibiting the binding of REOB-1 phages to Nd2O3 nanoparticles. The polypeptide RE-1 and its analogues had different binding ability to Nd2O3.

HeLa-LC3 cells = assay: RE-1 analogues blocking nanophosphor-induced autophagy (LC3 aggregates and vacuoles); type: cell-based
Protocol: UCN and UCP coated with RE-1 analogues RE-2, RE-3, or RE-5 were prepared as follows: 50 μg or 10 μg RE-1 analogues RE-2, RE-3, or RE-5 was mixed with 100 μg UCN or UCP, respectively, incubated at 37° C. for 2 hr, centrifuged at 12000 rpm, and then washed with water 3 times to remove the excess and unbound peptides. The resultant precipitate was resuspended in 100 μL water.
HeLa-LC3 cells were inoculated into a 96-well cell culture plate at a density of about 1-2×10^4 cells/well, and cultured overnight for further use. At first, the medium was replaced with fresh DMEM medium, and then 100 μg/mL UCN, UCN+RE-1, UCN+RE-2, UCN+RE-3, or UCN+RE-5 was added. An equal volume of PBS was used as blank. A mixture of 100 μg/mL UCN and 10 mg/mL PEG was used as negative control. A mixture of 100 mM trehalose and 50 μg RE-1 was used as positive control. After culturing for 24 hr, a fluorescence microscope was used to observe, image, and count.
HeLa-LC3 cells were inoculated into a 96-well cell culture plate at a density of about 1-2×10^4 cells/well, and cultured overnight for further use. At first, the medium was replaced with fresh DMEM medium, and then 100 μg/mL UCP, UCP+RE-1, UCP+RE-2, UCP+RE-3, or UCP+RE-5 was added. An equal volume of PBS was used as blank. After culturing for 24 hr, a fluorescence microscope was used to observe, image, and count.
The ability to induce cell autophagy was estimated by determining the numbers of LC3 aggregates and vacuoles.

LC3 II in HeLa cells = assay: Western blotting of LC3 in HeLa cells; type: cell-based
Protocol: Western blotting is performed as follows: After an incubation of 24 h, the cells are collected and lysed with lysis buffer (purchased from Beyotime Biotechnology, China). The lysate is boiled in boiling water for 10 min, subjected to 15% SDS-PAGE, and then transferred to nylon membrane (purchased from Amersham Inc.) by a wet transfer. In the Western blotting, Anti-LC3 (Light Chain 3 Protein Antibody, purchased from Novus Inc., Catalog #: NB 100-2220) is used as primary antibody; GAPDH (purchased from Millipore Inc.) is used as internal reference; and Horseradish peroxidase (HRP) conjugated goat anti-rabbit IgG (H+L) (Goat Anti-Rabbit IgG (H+L), HRP Conjugate) (purchased from Promega Inc.) is used as secondary antibody.
HeLa cells were inoculated into a 24-well cell culturing plate at a density of about 3-5×10^4 cells/well, and cultured overnight for further use. At first, the medium was replaced with fresh DMEM medium, and then 100 μg/mL UCN or UCN+RE-1 was added. An equal volume of PBS was used as blank. A mixture of 100 μg/mL UCN and 10 mg/mL PEG was used as negative control. 100 mM trehalose was used as positive control. Then, western blotting assay was performed.
HeLa cells were inoculated into a 24-well cell culturing plate at a density of about 3-5×10^4 cells/well, and cultured overnight for further use. At first, the medium was replaced with fresh DMEM medium, and then 100 μg/mL UCP or UCP+RE-1 was added. An equal volume of PBS was used as blank. A mixture of 100 μg/mL UCP+AP-1 and a mixture of 400 μg/mL TiO2+AP-1 were used as negative control. 400 μg/mL TiO2 was used as positive control. Then, western blotting assay was performed.

HeLa cells [2] = assay: Cytotoxicity of UCN or UCP with or without RE-1 (MTT, PI staining); type: cell-based; details: 10-1000 μg/mL, 24 hr, MTT and PI staining
Protocol: (§1) MTT cell vitality assay is performed as follows: The cells to which samples have been added are cultured for 24 hr, and then 0.5 mg/mL MTT solution is added and cultured for 4 hr. The MTT solution in the well is discharged, and then 200 μL DMSO is added, followed by gently shaking the plate on a shaking table for 10 min. Detection is performed using microplate reader (ELX800, purchased from BIO-TEK) at a wavelength of 570 nm.
(§2) PI staining assay is performed as follows: The cells to which samples have been added are cultured for 24 hr, and then to the culture Hoechst 33342 (10 mM, purchased from Sigma, USA, Catalog #: B2261) and PI (Propidium Iodide) (10 mM, purchased from Beyotime Biotechnology, Catalog #: ST511) are added for 10 min of staining. Then, the cells are detected and photographed under a fluorescence microscope (Olympus IX71, purchased from Olympus). The number of the cells counted by this assay was 500.
HeLa cells were inoculated into a 96-well cell culturing plate at a density of about 1-2×10^4 cells/well, and cultured overnight for further use. At first, the medium was replaced with fresh DMEM medium, and then 10 μg/mL, 100 μg/mL, 250 μg/mL, 500 μg/mL, or 1000 μg/mL of UCN or UCP coated, with or without RE-1, were added, respectively. After culturing for 24 hr, MTT cell viability assay and PI staining were performed to detect the mortality of the cells.

HeLa cells [3] = assay: Effect of RE-1 analogues on cytotoxicity induced by UCN, UCP (MTT, PI staining); type: cell-based; details: 1 mg/mL, 24 hr
Protocol: as §1, §2
HeLa cells were inoculated into 96-well cell culturing plate at a density of about 1-2×10^4 cells/well, and cultured overnight for further use. At first, the medium was replaced with fresh DMEM medium, and then 1 mg/mL UCN, UCP, UCN+PEG (containing 10 mg PEG), UCN+RE-1, UCP, UCP+RE-1, UCN+RE-2, UCN+RE-3, UCN+RE-5, UCP+RE-2, UCP+RE-3, or UCP+RE-5 were added, respectively. After culturing for 24 hr, MTT cell viability assay and PI staining were performed to detect the mortality of the cells.

For “ACTARSPWICG [RE-1, RE-0 with terminal amino acids A and G added]”, which IC50 [1] is on record?
The IC50 was 3.01 ± 0.14 µM.

And the “rank of ability after coating UCN to inhibit cell autophagy induced by UCN” value (HeLa-LC3 cells; 100 μg/mL, 24 hr)?
Its value is “RE-1>RE-3>RE-5”.

And the “inhibition of cell autophagy induced by Tre (trehalose)” value (HeLa-LC3 cells; mixture of 100 mM trehalose and 50 μg RE-1)?
Its value is “had no inhibition”.

And the “effect of RE-1 coating of UCN and UCP on LC3 II” value (LC3 II in HeLa cells; 100 μg/mL UCN+RE-1 or UCP+RE-1)?
Its value is “significantly prevented the increase of LC3 II”.

What about the “inhibition of cell autophagy induced by TiO2” value (LC3 II in HeLa cells; 400 μg/mL TiO2) of the same sequence?
Its value is “could not inhibit”.

And the “effect of coating with RE-1 on cytotoxicity of UCN, UCP” value (HeLa cells [2])?
The value was “significantly reduced cytotoxicity”.

And the “inhibitory effect of coating on cytotoxicity induced by UCN and UCP” value (HeLa cells [3])?
The value was “RE-1>RE-3>RE-5”.
